Assay results: publication PMC11732138, “Gold complex compounds that inhibit drug-resistant Staphylococcus aureus by targeting thioredoxin reductase” (Frontiers in Antibiotics, 2023)
Like-named read-outs stand apart in the source and are kept apart here.

What was measured:
HepG2 cells = test: Immortalized cell line toxicity (WST-1), HepG2; type: cell-based, human; details: HepG2 liver cell line, 24 h
Protocol: (§1) A hepatic cell line (HepG2), lung carcinoma cell line (A549), and kidney cell line (HKC) were used to test the cytotoxicity of investigational compounds. Cells were grown in DMEM (ThermoFisher Scientific, Waltham, MA, USA) supplemented with 10% fetal bovine serum (FBS) (ThermoFisher Scientific, Waltham, MA, USA) and 1% penicillin/streptomycin (ThermoFisher Scientific, Waltham, MA, USA) and maintained at 37°C in 5% CO2. 2.5x10^4 cells in 100 μL of DMEM with 10% FBS were added to wells of 96-well plates 24 h prior to the experiments. Compounds were serially diluted in […], and 100 μL antibiotic-free DMEM was added to the monolayer and incubated at 37°C in 5% CO2 for 24 h. At 2 h before the end of the incubation period, 10 μL of 2-(4-iodophenyl)-3-(4-nitrophenyl)-5-(2, 4-disulfophenyl)-2H-tetrazolium (WST-1) solution (Roche, Mannheim, Germany) was added to each well. WST-1 reduction was monitored at 450 nm using a Vmax microplate reader. Assays were performed in triplicate, and the percentage survival was calculated by comparing the compound-treated wells to the DMSO vehicle control wells.

[1] = tested on: human primary hepatocytes; test: Human primary hepatocytes toxicity; type: cell-based; details: 24 h, WST1
Protocol: Human primary hepatocytes toxicity. Cryopreserved human primary hepatocytes were purchased from the Cell Resource Core at Massachusetts General Hospital (Boston, MA, USA). Collagen sandwiched configuration was used to culture the thawed cells in 24-well plates. The 24-well plates were coated with rat tail collagen type I (Cell Recourse Core, MGH) and incubated for an hour before 4 x 10^5 live cells were plated and incubated at 37°C with 5% CO2 for 1 h to allow cells to attach to the collagen gel. After incubation, the medium was removed along with dead cells, and the remaining cells received 0.5 mL of hepatocyte culture medium containing Dulbecco’s modified Eagle’s medium (DMEM) media supplemented with 10% FBS, 0.5 U/mL insulin, 14 ng/mL glucagon, 20 ng/mL EGF, 7.5 µg/mL hydrocortisone and 200 U/mL penicillin-streptomycin. The cell cultures were incubated in a humidified, 5% CO2 incubator at 37°C. After 24 h, a top layer of collagen gel was poured over the hepatocytes attached to collagen on the bottom of the plate, making a sandwich model. After 1 h, investigational compounds at the designated concentrations were added and incubated for 24 h. Post incubation, hepatocyte WST1 (Roche, Basel, Switzerland) was added and incubated for 4 h. Cell staining was measured by recording the absorbance at 420 nm, measured using a Vmax microplate reader (Molecular Devices, San Jose, CA, USA.), and data were plotted using GraphPad Prism. Cells were tested in triplicate.

hERG channel [2] = biological target: T1, hERG channel (Homo sapiens, UniProt Q12809); test: hERG measurement (QPatch HTX patch clamp)
From the text: (§4) QPatch HTX system (Sophion Biosciences A/S, Ballerup, Denmark) was used to examine hERG signaling (Cyprotex, Watertown, MA, USA). The system was primed with appropriate extracellular (NaCl, KCl, CaCl2, MgCl2, D-glucose, HEPES, pH 7.4) and intracellular (KCl, MgCl2, EGTA, MgATP, HEPES, pH 7.2) solutions before conducting the study in a 48 well plate (QPlate, Sophion Biosciences A/S, Ballerup, Denmark). All cell suspensions, buffers, and test compound solutions were kept at room temperature during the experiment. HEK293 cells stably transfected with hERG cDNA were washed and positioned into each well (recording chamber) of the QPlate. The QPatch system follows the general principles of conventional whole-cell patch-clamping: a high resistance seal is formed between the patch electrode, and an individual cell, the membrane across the electrode tip is then ruptured, and the whole-cell patch-clamp configuration is established. The standard voltage profile was as follows: step from -80 mV to –50 mV for 200 ms, +20 mV for 4.8 s, step to -50 mV for 5 s, then stepped to the holding potential of -80 mV. The step from -80 mV to the test command (+20 mV) results in an outward current (i.e., current flows out of the cell), and the step from the test command (+20 mV) to -50 mV results in the tail current (the tail current represents deactivation of the current overtime). Compound dilutions were prepared by diluting a DMSO solution (default 10 mM), followed by dilution into an extracellular buffer such that the final concentrations tested were 0.1, 1, and 10 μM (final DMSO concentration 0.1%). Perfusion solutions contained 0.05% Pluronic F-68 and were stored at room temperature for the duration of the experiment each day. The voltage protocol was run and recorded continuously during the experiment. Cells were treated with a vehicle for 3 min (i.e., 0.1% DMSO) followed by three increasing test substance concentrations (0.1, 1, and 10 μM). The test compounds were applied in triplicate at each concentration and tested in at least 2 cells (biological replicates). […]

[3] = Compound solubility in PBS; type: physicochemical; details: aqueous buffer
Protocol: Compound solubility in PBS. Compound solubility was measured in PBS. Briefly, serial dilutions of test compounds were prepared in DMSO at 100x the final concentration. Test compound solutions were diluted 100-fold into PBS in a 96-well plate and mixed. After 2 h, the presence of precipitate was detected by measuring absorbance at 540 nm.

human erythrocytes = details: tested range 256 to 0.125 μg/mL
Protocol: The plate was incubated for 1h at 37°C. After incubation, the plate was centrifuged at 1000 g for 5 min. Then, 100 µL of supernatant was transferred to a fresh 96-well microtiter well plate and the OD was measured at 540 nm. The assay was conducted in triplicate and the mean and SD values were reported.

A549 cells = test: Immortalized cell line toxicity (WST-1), A549; type: cell-based, human; details: A549 lung carcinoma cell line, 24 h
Protocol: as §1

[4] = Immortalized cell line toxicity (WST-1), the three cell lines together; type: cell-based; details: human, hkc, hepg2, a549 cells; read-out: toxicity to cell lines as multiple of the MIC
Protocol: as §1

S. aureus TrxR = S. aureus TrxR (Staphylococcus aureus, UniProt P66011); test: TrxR (TrxB) enzymatic assay, DTNB to TNB conversion
Protocol: TrxR specific inhibitory activity was evaluated using 40 μL of S. aureus TrxR enzyme (0.5 μg/μL) per 200 mL of the reaction mixture for 15 minutes, comparing auranofin to other sulfur-containing compounds (all tested at 10 μg/mL), including known anti-S. aureus compounds.
For the screening assay, diluted TrxR assay buffer (Cayman Chemical, Ann Arbor, MI) (100 μL) was mixed with the investigational compounds (20 μL) in a 96 well-plate format and combined with Sa-TrxB (40 μL; 0.5 μg/mL), DTNB (20 μL) and NADPH (20 μL). The reaction entailed combining NADPH and Sa-TrxB with DTNB, which was converted to TNB, producing a yellow color.

[5] = tested on: renal proximal tubule epithelial cells; test: Renal proximal tubule epithelial cell toxicity; type: cell-based, human; details: renal proximal tubule epithelial cells
S. aureus MW2 [6] = test: Time to kill assay; type: cell-based, Staphylococcus aureus; details: 4 × MIC, 4 h; bactericidal = 3-log10-CFU/mL reduction
Protocol: S. aureus MW2, a methicillin-resistant S. aureus (MRSA) isolate, was used to determine the bacteriostatic/bactericidal properties of test compounds, as previously described ([Rajamuthiah et al., 2015]). Assays were carried out as 2 biological replicates with n=3 for each in 24 well plates (BD Biosciences, Franklin Lakes, NJ, USA). Briefly, S. aureus MW2 cells were streaked on TSB agar from a frozen glycerol stock, and after overnight incubation, a single colony was inoculated on 2 mL of TSB and incubated at 37°C with agitation. The overnight culture of S. aureus MW2 was centrifuged at 4000 g for 5 min and then washed twice with PBS and collected through centrifuged at 4000 g for 5 min. The PBS was discarded and cells were suspended in TSB and aliquoted into a 24-well plate at a density of 10^8 cells/mL as a 1 mL volume. Test compounds were added such that the final concentration was 4 × MIC, and the cultures were incubated at 37°C with agitation. At designated time intervals, 5 μL aliquots from each test condition were serially diluted in TSB and plated onto TSA (BD Biosciences, Franklin Lakes, NJ, USA). CFUs were enumerated after overnight incubation at 35°C, and data were plotted using GraphPad Prism 9.0 (San Diego, CA, USA) to report the means and standard deviation of growth as measured by CFU/mL.

HKC cells = test: Immortalized cell line toxicity (WST-1), HKC; type: cell-based, human; details: HKC kidney cell line, 24 h
Protocol: as §1

[7] = Compound solubility in DMSO; type: physicochemical; details: organic solvent or mixture, turbidity at 540 nm, read-out: concentration up to which the compound remained soluble in DMSO
Protocol: To test compound solubility, stock solutions were made in triplicate at 50 mg/mL in DMSO. Two-fold serial dilutions of the test compounds were prepared at 50 μL volume in a 96-well assay plate and were kept in the incubator for 1 h. After incubation, the absorbance was measured at 540 nm using a Vmax microplate reader (Molecular Devices, Sunnyvale, CA, USA.) to detect turbidity.

Enterobacter (EAE 2625) = test: Broth microdilution MIC, Enterobacter; type: cell-based, Enterobacter spp.; details: Enterobacter (EAE 2625)
Protocol: (§2) In vitro antibiotic susceptibilities were determined using the broth microdilution assay established by the Clinical and Laboratory Standards Institute ([Clinical and Laboratory Standards Institute, 2012]). Broth microdilution assays were carried out with 2 biological replicates, each in triplicate, Mueller–Hinton broth (MHB; BD Biosciences, Franklin Lakes, NJ, USA) with a total assay volume of 100 μL in 96-well plates (BD Biosciences, Franklin Lakes, NJ, USA). Two-fold serial dilutions of compounds were prepared at a range of 0.01– 64 μg/mL in 50 μL of MHB. The initial bacterial inoculum was adjusted to OD600 0.06, 50 μL was, added to the test compounds, and then incubated at 35°C for 18 h. Post incubation, OD600 was measured using a Vmax microplate reader (Molecular Devices, San Jose, CA), and the lowest concentration of test compound that suppressed bacterial growth was reported as the MIC. Broth culture from the MIC assay (10 μL) was plated on Mueller–Hinton agar (BD Biosciences, Franklin Lakes, NJ, USA), and colony-forming units (CFUs) were enumerated after overnight incubation at 37°C.

S. aureus MW2 [8] = test: Broth microdilution MIC, S. aureus MW2; type: cell-based, Staphylococcus aureus; details: S. aureus MW2 (MRSA), broth microdilution, 18 h
Protocol: as §2

[9] = set-up: method as in Kean et al., 1997; details: auranofin-treated patients ref Kean et al., 1997; cited from earlier work
[10] = tested on: S. aureus MW2 biofilm formation; test: Biofilm formation inhibition; type: cell-based, Staphylococcus aureus; details: 24 h, Alamar Blue
Protocol: (§3) Diluted bacterial cells were added to 100 μL of test compounds (serially diluted 16 to 0 μg/mL) and incubated for 24 h to assess the biofilm formation inhibition. For the disruption of matured biofilm, diluted cells in 100 μL were added to the 96-well plate and incubated for 24 h with no agitation. […] Biofilm assays were completed in triplicate.

mature S. aureus biofilm = test: Disruption of mature biofilm; type: cell-based, Staphylococcus aureus; details: preformed 24 h biofilm, Alamar Blue
Protocol: as §3

S. aureus MW2 [11] = test: Diamide assay (CFU reduction); type: cell-based, Staphylococcus aureus; details: compound 0.5 μg/mL + 5 mM diamide, 3 h
Protocol: An overnight culture of S. aureus MW2 was inoculated in tryptic soy broth (TSB) media and grown with agitation. The cells were centrifuged, washed with PBS, and diluted to an OD600 0.4 (10^8 CFU/mL) in PBS. The cells were then treated with auranofin (0.5 µg/mL), AU1 (0.5 µg/mL), AU5 (0.5 µg/mL), and diamide (5 mM and 10 mM) alone or in combinations for 3 h at 37°C. The cells were then serially diluted and plated on tryptic soy agar (TSA) media and incubated at 37°C for 24 h. Colonies that grew on plates were enumerated to determine the effect of the drug and diamide on S. aureus.

[12] = tested on: intracellular free thiols of S. aureus MW2; test: Thiol depletion assay; type: cell-based, Staphylococcus aureus; details: treated vs untreated cell lysate
Protocol: S. aureus MW2 was treated for 15 min with the indicated (0.125, 0.25, 0.5, or 0.75 µg/mL) concentrations of auranofin, AU1, AU5, or ampicillin. After treatment bacteria were washed twice in PBS and then resuspended in 100 mM potassium phosphate, monobasic, pH 7.4, containing 1 mM ethylenediaminetetraacetic acid to promote lysis. Cells were incubated in the lysis solution for 30 min at 60°C and then vortexed briefly. The solution was centrifuged at 13,000 g for 10 min to collect cell debris. Lysate was collected and 50 μL was transferred to a 96-well plate. Thiols were quantified using the Fluorometric Thiol assay kit following the manufacturer’s instructions (Millipore Sigma, St. Louis, MO, USA). The fluorescence intensity was measured after a 30 min incubation time at λex = 490/λem = 535 nm using a Vmax plate reader.

hERG channel [13] = biological target: T1, hERG channel
From the text: as §4

K. pneumoniae ATCC 77326 = test: Broth microdilution MIC, K. pneumoniae; type: cell-based, Klebsiella pneumonia; details: K. pneumoniae ATCC 77326
Protocol: as §2

H. pylori 49503 = test: Broth microdilution MIC, H. pylori; type: cell-based, Helicobacter pylori; details: H. pylori 49503
Protocol: as §2

E. faecium ATCC E007 = test: Broth microdilution MIC, E. faecium; type: cell-based, Enterococcus faecium; details: E. faecium ATCC E007
Protocol: as §2

P. aeruginosa PA14 = test: Broth microdilution MIC, P. aeruginosa; type: cell-based, Pseudomonas aeruginosa; details: P. aeruginosa PA14
Protocol: as §2

A. baumannii 17978 = test: Broth microdilution MIC, A. baumannii; type: cell-based, Acinetobacter baumannii; details: A. baumannii 17978
Protocol: as §2

Chain of S. aureus TrxR (P66011 whole entry): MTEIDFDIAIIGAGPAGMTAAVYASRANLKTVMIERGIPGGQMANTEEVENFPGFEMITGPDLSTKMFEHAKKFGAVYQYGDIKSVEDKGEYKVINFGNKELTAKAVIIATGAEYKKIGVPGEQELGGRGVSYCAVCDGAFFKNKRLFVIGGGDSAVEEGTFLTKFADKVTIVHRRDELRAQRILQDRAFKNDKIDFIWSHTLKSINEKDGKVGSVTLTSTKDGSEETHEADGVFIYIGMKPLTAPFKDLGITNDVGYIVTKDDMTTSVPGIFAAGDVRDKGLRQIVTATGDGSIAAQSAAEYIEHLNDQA
T1 sequence (Q12809 whole entry): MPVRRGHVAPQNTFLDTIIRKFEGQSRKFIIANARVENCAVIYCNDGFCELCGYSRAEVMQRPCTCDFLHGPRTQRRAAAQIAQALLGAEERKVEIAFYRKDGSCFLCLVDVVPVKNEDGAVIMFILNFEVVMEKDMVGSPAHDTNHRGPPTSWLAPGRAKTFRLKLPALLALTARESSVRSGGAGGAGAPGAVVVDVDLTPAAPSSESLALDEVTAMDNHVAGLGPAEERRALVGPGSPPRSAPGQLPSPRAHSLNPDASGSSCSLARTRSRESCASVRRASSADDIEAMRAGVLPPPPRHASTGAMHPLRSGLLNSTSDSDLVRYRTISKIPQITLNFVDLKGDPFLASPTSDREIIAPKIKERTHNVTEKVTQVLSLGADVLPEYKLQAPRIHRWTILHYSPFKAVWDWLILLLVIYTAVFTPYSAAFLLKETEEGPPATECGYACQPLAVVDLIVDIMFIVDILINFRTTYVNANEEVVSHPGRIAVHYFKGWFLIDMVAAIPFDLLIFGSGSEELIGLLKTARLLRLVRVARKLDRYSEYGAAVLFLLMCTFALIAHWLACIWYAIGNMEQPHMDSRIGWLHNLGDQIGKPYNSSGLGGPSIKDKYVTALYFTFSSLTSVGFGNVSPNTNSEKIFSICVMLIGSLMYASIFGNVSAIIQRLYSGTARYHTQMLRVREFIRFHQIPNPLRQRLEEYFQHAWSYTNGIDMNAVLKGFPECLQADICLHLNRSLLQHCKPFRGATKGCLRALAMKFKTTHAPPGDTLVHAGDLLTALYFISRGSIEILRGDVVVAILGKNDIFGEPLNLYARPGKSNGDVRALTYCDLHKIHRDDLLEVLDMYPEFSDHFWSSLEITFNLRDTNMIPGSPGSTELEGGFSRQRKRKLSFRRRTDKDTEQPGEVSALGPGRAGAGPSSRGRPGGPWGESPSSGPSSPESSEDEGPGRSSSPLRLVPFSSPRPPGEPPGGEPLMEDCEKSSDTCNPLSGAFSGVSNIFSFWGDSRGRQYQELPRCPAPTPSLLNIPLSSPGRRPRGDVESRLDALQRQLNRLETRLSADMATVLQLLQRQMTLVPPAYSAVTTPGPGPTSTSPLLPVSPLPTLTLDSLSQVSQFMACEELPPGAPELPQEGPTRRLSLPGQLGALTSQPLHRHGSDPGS

CC(C)(C)c1ccc([S-])cc1.CCP(CC)CC.[Au+] [AU1]
LD50 (HepG2 cells): approximately 3 μg/mL
LD50 [1]: approximately 3 μg/mL
IC50 (hERG channel [2]): > 10 µM
solubility at 2 h ([3]; PBS, 2 Hour, highest concentration with no detectable precipitate, read-out: Solubility Limit): 3.13 µM
solubility at 2 h ([3]; pbs, read-out: Solubility in PBS converted to mass concentration): 1.49 µg/mL
hemolysis (in words) (human erythrocytes): did not cause hemolysis within the tested range
LD50 (A549 cells): approximately 4 μg/mL
selectivity ratio at 24 h [4]: 16 to 32
IC50 (S. aureus TrxR): 0.5 µM
LD50 [5]: 1.5 µg/mL
LD50 as multiple of the MIC [5]: 12 X MIC
bactericidal versus bacteriostatic nature (time-to-kill kinetics) (S. aureus MW2 [6]): bacteriostatic
LD50 (HKC cells): < 2 µg/mL
solubility at 1 h [7]: ≥ 50 µg/mL

CC(=O)OC[C@H]1O[C@@H]([S-])[C@H](OC(C)=O)[C@@H](OC(C)=O)[C@@H]1OC(C)=O.CCP(CC)CC.[Au+] [Auranofin]
MIC (Enterobacter (EAE 2625)): >32 µg/mL
MIC (S. aureus MW2 [8]): 0.25 µg/mL
LD50 [1]: approximately 8 μg/mL
patients with proteinuria [9]: 5%
concentration that inhibited biofilm formation (P<0.01) [10]: 0.125 µg/mL
concentration that significantly reduced mature biofilm (mature S. aureus biofilm): 0.125 µg/mL
log CFU reduction in combination with diamide (S. aureus MW2 [11]): 2.1 log CFU
impact on free thiols (in words) [12]: a reduction was observed
IC50 (hERG channel [13]): 9.68 µM
MIC (K. pneumoniae ATCC 77326): >32 µg/mL
MIC (H. pylori 49503): 0.25 µg/mL
MIC (E. faecium ATCC E007): 0.5 µg/mL
MIC (P. aeruginosa PA14): >32 µg/mL
TrxR enzymatic inhibitory activity (in words) (S. aureus TrxR; DTNB to TNB conversion): Measurable activity reduction
OD420 in TrxR enzymatic assay (S. aureus TrxR; subscreen, after a 30 min incubation period, DMSO 0.483 ± 0.121): 0.295 ± 0.012
MIC (A. baumannii 17978): 32 µg/mL
LD50 as multiple of the MIC [5]: 6 X MIC
